# Literature values as cited in PubChem BioAssay AID1259409 (Chemical Carcinogenesis Research Information System (CCRIS), 2018).
# Tested on: rodent chemically induced tumor inhibition, incidence and multiplicity
# Assay: CCRIS tumor inhibitor studies
# Details: Carcinogen: 2,2'-DIHYDROXY-DI-N-PROPYLNITROSAMINE, 53609-64-6, 13147-25-6, Carcinogen: 2,2'-DIHYDROXY-DI-N-PROPYLNITROSAMINE, 53609-64-6, 13147-25-6, Dose [Inhibitor]: 0, Route [Inhibitor]: ORAL, Species: RAT, Strain/Sex: F344/MALE, Promoter: NONE USED
smiles,measurement,setting,value
O=C(OC[C@@H]1O[C@H](OC(=O)c2cc(O)c(O)c(OC(=O)c3cc(O)c(O)c(O)c3)c2)[C@@H](OC(=O)c2cc(O)c(O)c(OC(=O)c3cc(O)c(O)c(O)c3)c2)[C@H](OC(=O)c2cc(O)c(O)c(OC(=O)c3cc(O)c(O)c(O)c3)c2)[C@H]1OC(=O)c1cc(O)c(O)c(OC(=O)c2cc(O)c(O)c(O)c2)c1)c1cc(O)c(O)c(OC(=O)c2cc(O)c(O)c(O)c2)c1,"tumour outcome (control, treated, inhibition, significance)","N-ETHYL-N-HYDROXYETHYL- NITROSAMINE, 3,2'-DIMETHYL-4-, N-ETHYL-N-HYDROXYETHYL- NITROSAMINE, 3,2'-DIMETHYL-4-, 1% IN DIET BEGINNING 1 WK POST LAST CARCINOGEN DOSE AND CONTINUING FOR 32 WK (STUDY DURATION: 36 WK), Target Tissue: Type of Lesion: LARGE INTESTINE: ADENOMA, Dose [Carcinogen]: 1000 MG/KG IP DHPN 2X, 1500 MG/KG GAV EHEN 2X AND 75 MG/KG SC DMAB GIVEN OVER THE INITIAL 3 WK PERIOD AT 3-4 D INTERVALS","7/14 (50%), 2/12 (17%), 66%, not calculated"
same,"tumour outcome (control, treated, inhibition, significance)","N-ETHYL-N-HYDROXYETHYL- NITROSAMINE, 3,2'-DIMETHYL-4-, N-ETHYL-N-HYDROXYETHYL- NITROSAMINE, 3,2'-DIMETHYL-4-, 1% IN DIET BEGINNING 1 WK POST LAST CARCINOGEN DOSE AND CONTINUING FOR 32 WK (STUDY DURATION: 36 WK), Target Tissue: Type of Lesion: LARGE INTESTINE: CARCINOMA, Dose [Carcinogen]: 1000 MG/KG IP DHPN 2X, 1500 MG/KG GAV EHEN 2X AND 75 MG/KG SC DMAB 3X GIVEN OVER THE INITIAL 3 WK AT 3-4 D INTERVALS","3/14 (21%), 1/12 (8%), 62%, not calculated"
same,"tumour outcome (control, treated, inhibition, significance)","N-ETHYL-N-HYDROXYETHYL- NITROSAMINE, 3,2'-DIMETHYL-4-, N-ETHYL-N-HYDROXYETHYL- NITROSAMINE, 3,2'-DIMETHYL-4-, 1% IN DIET BEGINNING 1 WK POST LAST CARCINOGEN DOSE AND CONTINUING FOR 32 WK (STUDY DURATION: 36 WK), Target Tissue: Type of Lesion: LUNG: ADENOMA, Dose [Carcinogen]: 1000 MG/KG IP DHPN 2X, 1500 MG/KG GAV EHEN 2X AND 75 MG/KG SC DMAB 3X GIVEN OVER THE INITIAL 3 WK AT 3-4 D INTERVALS","7/14 (50%), 7/12 (58%), -16%, not calculated"
same,"tumour outcome (control, treated, inhibition, significance)","N-ETHYL-N-HYDROXYETHYL- NITROSAMINE, 3,2'-DIMETHYL-4-, N-ETHYL-N-HYDROXYETHYL- NITROSAMINE, 3,2'-DIMETHYL-4-, 1% IN DIET BEGINNING 1 WK POST LAST CARCINOGEN DOSE AND CONTINUING FOR 32 WK (STUDY DURATION: 36 WK), Target Tissue: Type of Lesion: LUNG: CARCINOMA, Dose [Carcinogen]: 1000 MG/KG IP DHPN 2X, 1500 MG/KG GAV EHEN 2X AND 75 MG/KG SC DMAB 3X GIVEN OVER THE INITIAL 3 WK PERIOD AT 3-4 D INTERV","1/14 (7%), 2/12 (17%), -143%, not calculated"
same,"tumour outcome (control, treated, inhibition, significance)","N-ETHYL-N-HYDROXYETHYL- NITROSAMINE, 3,2'-DIMETHYL-4-, N-ETHYL-N-HYDROXYETHYL- NITROSAMINE, 3,2'-DIMETHYL-4-, 1% IN DIET BEGINNING 1 WK POST LAST CARCINOGEN DOSE AND CONTINUING FOR 32 WK (STUDY DURATION: 36 WK), Target Tissue: Type of Lesion: URINARY BLADDER: CARCINOMA, Dose [Carcinogen]: 1000 MG/KG IP DHPN 2X, 1500 MG/KG GAV EHEN 2X AND 75 MG/KG SC DMAB 3X GIVEN OVER THE INITIAL 3 WK PERIOD AT 3-4 D INTERV","1/14 (7%), 2/12 (17%), -143%, not calculated"
same,outcome,"N-ETHYL-N-HYDROXYETHYL- NITROSAMINE, 3,2'-DIMETHYL-4-, N-ETHYL-N-HYDROXYETHYL- NITROSAMINE, 3,2'-DIMETHYL-4-, 1% IN DIET BEGINNING 1 WK POST LAST CARCINOGEN DOSE AND CONTINUING FOR 32 WK (STUDY DURATION: 36 WK), Target Tissue: Type of Lesion: URINARY BLADDER: PAPILLOMA, Dose [Carcinogen]: 1000 MG/KG IP DHPN 2X, 1500 MG/KG GAV EHEN 2X AND 75 MG/KG SC DMAB 3X GIVEN OVER THE INITIAL 3 WK PERIOD AT 3-4 D INTERV","0/14 (0%), 3/12 (25%), -100%, not calculated"
same,"tumour outcome (control, treated, inhibition, significance)","N-ETHYL-N-HYDROXYETHYL- NITROSAMINE, 3,2-DIMETHYL-4-A, N-ETHYL-N-HYDROXYETHYL- NITROSAMINE, 3,2-DIMETHYL-4-A, 1% IN DIET BEGINNING 1 WK POST LAST CARCINOGEN DOSE AND CONTINUING FOR 32 WK (STUDY DURATION: 36 WK), Target Tissue: Type of Lesion: LIVER: HEPATOCELLULAR CARCINOMA, Dose [Carcinogen]: 100 MG/KG IP DHPN 2X, 1500 MG/KG GAV EHEN 2X AND 75 MG/KG SC DMAB 3X GIVEN OVER THE INITIAL 3 WK PERIOD AT 3-4 D INTERVA","6/14 (43%), 3/12 (25%), 42%, not calculated"
same,"tumour outcome (control, treated, inhibition, significance)","N-ETHYL-N-HYDROXYETHYLNITROSAMINE, 3,2'-DIMETHYL-1,4-, N-ETHYL-N-HYDROXYETHYLNITROSAMINE, 3,2'-DIMETHYL-1,4-, 1% IN DIET FOR 4 WK BEGINNING 1 D PRIOR TO FIRST CARCINOGEN DOSE (STUDY DURATION: 36 WK), Target Tissue: Type of Lesion: KIDNEY: ADENOMA, Dose [Carcinogen]: 1000 MG/KG BW DHPN TWICE, 1500 MG/KG THEN TWICE, 75 MG/KG BW DMAB 3 TIMES, SEQUENTIALLY OVER 3 WK","6/10 (60%), 6/12 (50%), 17%, not significant"
same,"tumour outcome (control, treated, inhibition, significance)","N-ETHYL-N-HYDROXYETHYLNITROSAMINE, 3,2'-DIMETHYL-1,4-, N-ETHYL-N-HYDROXYETHYLNITROSAMINE, 3,2'-DIMETHYL-1,4-, 1% IN DIET FOR 4 WK BEGINNING 1 D PRIOR TO FIRST CARCINOGEN DOSE (STUDY DURATION: 36 WK), Target Tissue: Type of Lesion: LUNG: ADENOMA, Dose [Carcinogen]: 1000 MG/KG BW DHPN TWICE, 1500 MG/KG THEN TWICE, 75 MG/KG BW DMAB 3 TIMES, SEQUENTIALLY OVER 3 WK","5/10 (50%), 7/12 (58%), -16%, not significant"
same,"tumour outcome (control, treated, inhibition, significance)","N-ETHYL-N-HYDROXYETHYLNITROSAMINE, 3,2'-DIMETHYL-4-AMINO-, N-ETHYL-N-HYDROXYETHYLNITROSAMINE, 3,2'-DIMETHYL-4-AMINO-, 1% IN DIET FOR 32 WK BEGINNING 1 WK POST CARCINOGEN TREATMENT (STUDY DURATION: 36 WK), Target Tissue: Type of Lesion: KIDNEY: NEPHROBLASTOMA, Dose [Carcinogen]: 1000 MG/KG BW DHPN TWICE, 1500 MG/KG BW THEN TWICE, 75 MG/KG BW DMAB 3 TIMES ADMINISTERED OVER FIRST 3 WK","2/14 (14%), 0/12 (0%), 100%, not significant"
